What was measured:
[1] = system: G protein-coupled receptor, MAS; experiment: binding of labeled angiotensin-(1-7) in mouse kidney slices (normal or MAS knockout); conditions: MAS knockout mice, 4 °C, autoradiography or fluorescent microscopy
Protocol: (§1) After incubation for variable intervals at 4 °C the slices were exposed to autoradioghraphic films or analysed by flourescent microscopy. […] The functional test for the absence of binding in knockout mice was made using the water diuresis model (administration of 5% of the body weight, of H2O).

[2] = target: T1, G protein-coupled receptor, MAS (Mus musculus, UniProt P30554); experiment: as above; conditions: wild type mice
T1 construct: from tissue; host or cells: mouse kidney slices (wild type; MAS knockout as control)
T1 sequence (P30554 1-324): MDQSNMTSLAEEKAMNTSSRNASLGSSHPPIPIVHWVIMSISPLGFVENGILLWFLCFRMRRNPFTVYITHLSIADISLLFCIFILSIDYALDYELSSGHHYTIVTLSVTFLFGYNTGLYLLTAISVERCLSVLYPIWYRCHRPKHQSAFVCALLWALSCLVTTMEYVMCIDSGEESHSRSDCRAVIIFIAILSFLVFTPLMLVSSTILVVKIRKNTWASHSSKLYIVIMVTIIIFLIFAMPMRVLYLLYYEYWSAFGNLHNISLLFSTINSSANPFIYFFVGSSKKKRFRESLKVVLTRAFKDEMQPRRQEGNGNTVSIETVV
Protocol: as §1

ACE = ACE (Homo sapiens, UniProt P12821); conditions: read-out: IC50 for inhibition of ACE; cited from earlier work
[3] = system: G protein-coupled receptor, MAS; experiment: water diuresis model in wild type and MAS knockout mice; type: in vivo, mouse; conditions: MAS knockout mice, water load 5% of body weight
Protocol: (§2) Angiotensin-(1-7) labeled with 125I or rhodamine-angiotensin-(1-7), fluorescent, were incubated with mouse kidney slices from normal or MAS knockout animals. After incubation for variable intervals at 4 °C the slices were exposed to autoradioghraphic films or analysed by flourescent microscopy. In the knockout mice the specif binding for angiotensin-(1-7) disappeared while the binding for Ang II or Ang IV, used as controls, was inaltered. The Ang_(1-7) binding in kidney slices of wild type mice was displaced by the analogues D-Ala^7-Angiotensin-(1-7) e D-Pro^7-Angiotensin-(1-7). The functional test for the absence of binding in knockout mice was made using the water diuresis model (administration of 5% of the body weight, of H2O). […] In MAS knockout mice the antidiuretic effect of Ang-(1-7) was absent.

[4] = target: T1, G protein-coupled receptor, MAS; experiment: as above; type: in vivo; conditions: wild type mice, 4 pmol/10 g BW, water load 5% of body weight
Protocol: as §2

Wistar rats = conditions: free (not encapsulated) peptide, 25-50 ng in the RVLM, previous studies; cited from earlier work

Chain of ACE (P12821 30-1306, species assumed): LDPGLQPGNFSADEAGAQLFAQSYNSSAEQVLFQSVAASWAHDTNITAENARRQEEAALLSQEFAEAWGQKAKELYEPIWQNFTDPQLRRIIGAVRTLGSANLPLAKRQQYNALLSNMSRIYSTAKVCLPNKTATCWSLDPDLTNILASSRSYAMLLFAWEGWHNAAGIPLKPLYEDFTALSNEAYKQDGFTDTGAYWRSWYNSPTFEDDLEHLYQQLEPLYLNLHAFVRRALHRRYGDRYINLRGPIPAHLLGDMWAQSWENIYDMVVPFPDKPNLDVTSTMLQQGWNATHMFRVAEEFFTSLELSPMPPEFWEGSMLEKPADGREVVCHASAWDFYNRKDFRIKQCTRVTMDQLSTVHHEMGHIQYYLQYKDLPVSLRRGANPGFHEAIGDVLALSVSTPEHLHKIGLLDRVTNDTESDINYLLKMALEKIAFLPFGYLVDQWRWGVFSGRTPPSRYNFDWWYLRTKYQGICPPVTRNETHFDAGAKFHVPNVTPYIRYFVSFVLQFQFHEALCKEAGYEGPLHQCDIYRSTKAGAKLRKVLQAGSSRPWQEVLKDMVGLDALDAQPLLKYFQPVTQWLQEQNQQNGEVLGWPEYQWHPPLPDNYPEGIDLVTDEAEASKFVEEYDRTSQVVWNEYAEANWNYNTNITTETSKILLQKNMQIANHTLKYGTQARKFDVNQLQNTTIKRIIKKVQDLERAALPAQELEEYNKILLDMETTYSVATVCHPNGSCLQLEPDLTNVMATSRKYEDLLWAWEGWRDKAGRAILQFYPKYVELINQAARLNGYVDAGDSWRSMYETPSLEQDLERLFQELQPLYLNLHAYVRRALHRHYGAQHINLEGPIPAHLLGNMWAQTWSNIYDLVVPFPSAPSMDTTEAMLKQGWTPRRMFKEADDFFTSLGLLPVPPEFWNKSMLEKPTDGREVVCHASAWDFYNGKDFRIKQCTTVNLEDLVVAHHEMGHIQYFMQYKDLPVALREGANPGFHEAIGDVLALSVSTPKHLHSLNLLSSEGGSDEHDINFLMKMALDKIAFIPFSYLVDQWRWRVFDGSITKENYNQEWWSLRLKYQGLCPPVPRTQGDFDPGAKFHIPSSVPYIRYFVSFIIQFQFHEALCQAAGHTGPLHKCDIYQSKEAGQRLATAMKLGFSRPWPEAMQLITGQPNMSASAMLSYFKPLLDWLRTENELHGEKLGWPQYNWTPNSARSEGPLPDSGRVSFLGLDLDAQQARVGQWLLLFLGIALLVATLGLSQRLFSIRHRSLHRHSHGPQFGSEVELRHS

Molecule | binding in kidney slices of MAS knockout mice [1] | displacement of Ang-(1-7) binding in kidney slices [2] | other results
CC[C@H](C)[C@H](NC(=O)[C@H](Cc1ccc(O)cc1)NC(=O)[C@@H](N)C(C)C)C(=O)N[C@@H](Cc1cnc[nH]1)C(=O)N1CCC[C@H]1C(=O)N[C@@H](Cc1ccccc1)C(=O)O [Ang IV] | inaltered | – | –
Ang II: main peptide of RAS, used as binding control (DRVYIHPF; Angiotensin-2; UniProt P01019 25-32, looked up) | inaltered | – | –
D-Pro7-Ang-(1-7) [D-Pro^7-Angiotensin-(1-7)] | – | displaced | –
D-[Ala^7]-Ang-(1-7) [D-Ala^7-Angiotensin-(1-7)] | – | displaced | –
DRVYIHP [Ang-(1-7), Asp-Arg-Val-Tyr-Ile-His-Pro] | disappeared | – | IC50 (ACE): ~1 µM; antidiuretic effect [3]: absent; urine volume (antidiuresis) [4]: reduction of the urine volume; duration of increase of PAM (Wistar rats): approximately 10 min; increase of PAM (Wistar rats): 15 mmHg
